Assay results: patent US20250236614A1, “BICYCLIC TETRAHYDROAZEPINE DERIVATIVES” (Hoffmann-La Roche Inc., priority 2022, published 2025)

Key:
DGK ζ kinase = DGK ζ kinase (Homo sapiens, UniProt Q13574); test: In vitro DGK inhibition assay (ADP Glo) run by Reaction Biology Corp., DGK zeta; format: biochemical; conditions: isomer A, 2 nM kinase, 50 μM ATP, 500 uM DLG, 10-dose, 3-fold dilution starting at 1 μM, read-out: DGKzeta IC50
Experimental: (§1) DGK α and ζ kinase use ATP to phosphorylate the substrate 1,2-dilauroyl-sn-glycerol (DLG). ATP is converted to ADP as a result of this enzymatic reaction.
(§2) After the kinase reaction, an ATP-depletion reagent is added to terminate the kinase reaction and deplete any remaining ATP, leaving only ADP. Second, a detection reagent is added to simultaneously convert ADP to ATP and allow the newly synthesized ATP to be converted to light using a coupled luciferase/luciferin reaction.
(§3) DGK α and ζ kinase ADP Glo assays were ran by Reaction Biology Corp., 1 Great Valley Parkway, Suite 2, Malverm, 19355, PA, USA. Information provided by the service provider are the following: DGK α and ζ kinases were used at 2 nM final concentration. Reactions were carried out at 50 μM ATP. 500 uM of the substrate DLG (Dilauroyl-sn-glycerol) was used. Compounds were received at 10 mM DMSO stock solution and were tested in 10-dose IC50 duplicate with 3-fold serial dilution starting at 1 μM. A control compound, Calphostin C, was tested in 10-dose IC50 with 3-fold serial dilution starting at 100 μM.

DGK α kinase = DGK α kinase (Homo sapiens, UniProt P23743); test: In vitro DGK inhibition assay (ADP Glo) run by Reaction Biology Corp., DGK alpha; format: biochemical; conditions: isomer A, 2 nM kinase, 50 μM ATP, 500 uM DLG, 10-dose, 3-fold dilution starting at 1 μM, read-out: DGKalpha IC50
Experimental: as §1, §2, §3

[1] = molecular target: T1, hDGKzeta(1-928)-N-His (DGKZ) (Homo sapiens, UniProt Q13574); test: In vitro DGK inhibition assay (ADP-Glo, in house), DGK zeta; format: biochemical; conditions: isomer A; 2 nM DGK ζ, 50 μM ATP, 125 μM DLG in liposomes, 1 hour reaction; read-out: DGKzeta ADP Glo assay IC50
T1 construct: hDGKzeta(1-928)-N-His; His (N)
Experimental: (§4) DGK α and ζ kinase use ATP to phosphorylate the substrate 1,2-dilauroyl-sn-glycerol (DLG, incorporated in the liposomes). ATP is converted to ADP as a result of this enzymatic reaction.
as §2
(§5) Full length DGKA and Z were expressed in Sf21 insect cells by infecting the cells with the baculovirus stock at MOI of 2. Purification of both enzymes was performed as previously described by Takahashi et al., PeerJ, 2018 (Takahashi, D.; Sakane, F. Expression and purification of human diacylglycerolkinase alpha from baculovirus-infected insect cells for structural studies. PeerJ2018, 6, No. e5449).
(§6) A concentrated liposome solution was prepared in assay buffer without DTT and BSA: 2 mM of DLG in 21 mM of total liposome (2 mM DLG/8 mM PS/11 mM PC). The reaction mixtures contain the assay buffer with a final DLG concentration of 125 μM ATP concentrations of 25 μM (for DGKA assay) or 50 μM (for DGKZ assay). The reactions were started by addition of DGK α and ζ kinases at 4 nM and 2 nM final concentrations, respectively. After 1 hour reaction, the amount of ADP formed was detected with the ADP-Glo kinase assay (Promega) according to the manufacturer instructions. Compounds were added in 11I-points dose response, starting at 10 mM, 1:3 dilutions, with a final DMSO concentration of […]. The multidrop combi was used as a liquid handler and luminescence was read with 0.5 s by the envision reader (PE).

primary human T-cells = test: T-cell proliferation assay (CellTiter-Glo); format: cell-based; conditions: Homo sapiens, T-cell, 120 h, isomer A; for EC50: CD3 antibody-stimulated T-cells, CellTiter-Glo after 5 days, read-out: Tcell Proliferation CD3 EC50; for Emax: CD3 condition, 5 days, 20 μM reference compound A1 = 100%, DMSO neutral control, read-out: Emax proliferation (% activation)
Experimental: Expanded primary human T-cells are thawed and cultured in RPMI 1640 (Gibco, #61870-010)+5% human serum (HS, Sigma, #H3667)+1 mM Sodium Pyruvate (Gibco, #11360-039)+50 μM 2-mercaptoethanol (Gibco, #31350-010) and 1× Pen-Strep (Life Technologies, #15140122) medium at density of 2 Mio/ml for 3 hours in 5% CO2, 37° C. and 95% humidity. For coating of plates, PBS++ only or PBS++ with CD3 antibody (concentration depending on donor and determined by CD3 titrations) is added 100 μl/well to Poly-D Lysine coated 96-well plates. Plates are sealed and incubated at room temperature for 3 hours on a table-top rocking platform. After incubation, plates are washed once with PBS−− and filled with 40 μl/well culture medium only. Compounds are then added (see next section) to medium only plates. After 3 hours of culturing the T-cells, cells are filtered through a cell strainer (Miltenyi Biotech, #130-041-407), counted again and concentration is adjusted to 1.25 Mio/ml.
Cells are then seeded 80 μl/well to the 40 μl/well including dispensed compounds according to plate layout. By adding cells, compounds are further diluted 1:3, and resulting in 100k cells/120 μl/well. After 48 hours 40 μl of supernatant is collected carefully from the top while not disturbing the cells. Cells are assessed for proliferation 5 days later by measuring […] using CellTiterGlo (Promega).
Compounds were added in a 5 or 6 pt dose response with the Tecan D300e Digital Dispenser, all conditions 3 times more concentrated than the end-concentration, since cells are added afterwards (80 μl cells to 40 μl prepared medium with treatment). The DR was starting at 20 μM or 10 μM final top concentration and a dilution factor of 3.333. The positive control was the reference compound A1 that was added in a dose response as well, additionally to 3 wells of only 20 μM representing the positive stimulator control. All wells were normalized with DMSO to a final concentration of 0.6% (0.2% end-concentration).
After 5 days, for detection of ATP which is directly proportional to the number of cells present per well, the CellTiter-Glo® 2.0 Reagent is used. After visual control for toxicity or precipitations of the tested compounds, the plates are equilibrated to room temperature for 45 minutes. CellTiter-Glo® 2.0 Reagent is equilibrated to room temperature as well. After equilibration, an equal amount of CellTiter-Glo reagent is added to the cells (80 μl/well) with an electronic multichannel pipette. Plates are placed on a rocking platform for 15 minutes at room temperature. After incubation, the bottom of the plates is sealed with backing tape. Luminescence is measured with PHERAstar FSX (interval time 0.5 sec, gain 3000, focal height 15 mm) and exported as CSV file for analysis in Genedata screener.
CD3 and PBS plates were analysed separately in Genedata Screener using Roche Normalization PCT_POS_CTRL with DMSO set as Neutral Control and 20 μM of the reference compound A1 set as Stimulator Control/100%.
For CD3 conditions EC50 and Emax of the fitted sigmoidal curve were reported. If no curve could be fitted, the EC50 was reported as blank field and the Emax was based on individual data points. […] Compounds which activate unstimulated cells (see IL2 measurements) or compounds which negatively affected viability were flagged.

[2] = molecular target: T2, hDGKalpha(1-735)-N-His (DGKA) (Homo sapiens, UniProt P23743); test: In vitro DGK inhibition assay (ADP-Glo, in house), DGK alpha; format: biochemical; conditions: isomer A; 4 nM DGK α, 25 μM ATP, 125 μM DLG in liposomes, 1 hour reaction; read-out: DGKalpha ADP Glo assay IC50
T2 construct: hDGKalpha(1-735)-N-His; His (N)
Experimental: as §4, §2, §5, §6

T2 sequence (P23743 whole entry): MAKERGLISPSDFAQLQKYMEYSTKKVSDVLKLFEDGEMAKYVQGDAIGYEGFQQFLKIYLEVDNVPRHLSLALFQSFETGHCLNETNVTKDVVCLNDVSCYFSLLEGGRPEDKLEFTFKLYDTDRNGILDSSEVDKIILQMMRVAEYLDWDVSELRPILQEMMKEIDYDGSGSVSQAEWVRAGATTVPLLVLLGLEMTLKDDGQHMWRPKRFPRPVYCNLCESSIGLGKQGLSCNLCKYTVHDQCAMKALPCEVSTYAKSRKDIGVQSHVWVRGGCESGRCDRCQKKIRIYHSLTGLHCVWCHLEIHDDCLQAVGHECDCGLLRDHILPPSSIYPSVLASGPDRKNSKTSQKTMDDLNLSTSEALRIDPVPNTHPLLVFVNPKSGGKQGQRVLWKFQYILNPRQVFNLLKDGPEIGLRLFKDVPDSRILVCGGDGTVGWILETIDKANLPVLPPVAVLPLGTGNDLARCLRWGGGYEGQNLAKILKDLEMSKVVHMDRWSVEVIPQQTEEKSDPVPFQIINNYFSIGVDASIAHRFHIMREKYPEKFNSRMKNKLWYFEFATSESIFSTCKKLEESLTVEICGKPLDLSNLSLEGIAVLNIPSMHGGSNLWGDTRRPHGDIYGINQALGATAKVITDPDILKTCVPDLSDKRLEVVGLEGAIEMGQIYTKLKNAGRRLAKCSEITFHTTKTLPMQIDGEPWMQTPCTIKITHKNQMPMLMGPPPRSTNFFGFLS
T1 sequence (Q13574 whole entry): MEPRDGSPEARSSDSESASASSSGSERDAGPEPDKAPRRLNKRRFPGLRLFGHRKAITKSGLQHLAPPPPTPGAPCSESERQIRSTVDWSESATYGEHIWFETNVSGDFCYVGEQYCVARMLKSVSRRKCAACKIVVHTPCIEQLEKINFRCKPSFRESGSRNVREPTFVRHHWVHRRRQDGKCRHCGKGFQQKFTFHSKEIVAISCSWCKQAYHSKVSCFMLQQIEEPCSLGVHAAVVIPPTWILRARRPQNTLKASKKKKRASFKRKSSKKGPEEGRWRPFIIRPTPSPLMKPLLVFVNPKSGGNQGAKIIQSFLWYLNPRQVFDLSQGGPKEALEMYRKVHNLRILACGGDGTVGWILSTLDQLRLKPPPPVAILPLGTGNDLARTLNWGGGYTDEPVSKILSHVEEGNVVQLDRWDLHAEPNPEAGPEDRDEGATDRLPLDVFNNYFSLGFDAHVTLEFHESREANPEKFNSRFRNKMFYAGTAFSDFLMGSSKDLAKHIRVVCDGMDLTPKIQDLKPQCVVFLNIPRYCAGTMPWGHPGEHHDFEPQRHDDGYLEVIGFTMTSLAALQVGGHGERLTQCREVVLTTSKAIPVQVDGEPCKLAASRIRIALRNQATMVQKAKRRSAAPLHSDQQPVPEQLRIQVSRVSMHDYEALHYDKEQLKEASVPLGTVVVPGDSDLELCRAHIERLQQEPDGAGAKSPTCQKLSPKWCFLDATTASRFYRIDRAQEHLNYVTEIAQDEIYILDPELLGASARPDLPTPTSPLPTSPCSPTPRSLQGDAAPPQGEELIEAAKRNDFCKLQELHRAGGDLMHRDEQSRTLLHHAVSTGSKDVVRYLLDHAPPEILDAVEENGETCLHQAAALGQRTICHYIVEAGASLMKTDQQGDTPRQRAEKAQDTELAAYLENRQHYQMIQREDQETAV
Sequence of DGK α kinase (P23743 whole entry): as the sequence (P23743 whole entry) above
Sequence of DGK ζ kinase (Q13574 whole entry): as the sequence (Q13574 whole entry) above

With `CC(C)(C#N)c1nnc(-c2cc3c(cc2F)C(F)(F)C[C@@H](N)C(=O)N3Cc2ccc(Oc3ccccc3)cc2)o1` (single isomer, unassigned) [Example 11] the IC50 (DGK ζ kinase) was 20.6 nM, the IC50 (DGK α kinase) was 6.9 nM and the IC50 [1] was 1250 nM. For the same molecule, the EC50 (primary human T-cells) was 192 nM, the Emax (primary human T-cells) was 88% and the IC50 [2] was 3310 nM.

`CC(C)(C)c1cncc(-c2cc3c(cc2F)C(F)(F)C[C@@H](N)C(=O)N3Cc2ccc(Cl)cc2)c1` (single isomer, unassigned) [Example 18] gave an IC50 [1] greater than 62500 nM, an EC50 (primary human T-cells) of 666 nM and an Emax (primary human T-cells) of 52%. It also gave an IC50 [2] greater than 62500 nM.

For `CC(C)(C#N)c1nnc(-c2cc3c(cc2F)C(F)(F)C[C@@H](N)C(=O)N3Cc2ccc(-n3cc(OC(F)(F)F)cn3)cc2)o1` (single isomer, unassigned) [Example 43], the EC50 (primary human T-cells) was 23.4 nM and the Emax (primary human T-cells) was 105%.

Work on `CC(C)(C#N)c1nnc(-c2cc3c(cc2F)C(F)(F)C[C@@H](N)C(=O)N3Cc2ccc(-n3cc(C(F)(F)F)cn3)cc2F)o1` (single isomer, unassigned) [Example 44] yielded an EC50 (primary human T-cells) of 1460 nM and an Emax (primary human T-cells) of 126%.

`CC(C)(C#N)c1nnc(-c2cc3c(cc2F)C(F)(F)C[C@@H](N)C(=O)N3Cc2ccc(-n3cc(C(F)(F)F)cn3)nc2F)o1` (single isomer, unassigned) [Example 45] gave an EC50 (primary human T-cells) of 2940 nM and an Emax (primary human T-cells) of 67%.

Molecule `CC(C)(C#N)c1nnc(-c2cc3c(cc2F)C(F)(F)C[C@@H](N)C(=O)N3Cc2ccc(-n3cc(C(F)(F)F)cn3)nc2)o1` (single isomer, unassigned) [Example 46] has an IC50 [1] of 6750 nM, an EC50 (primary human T-cells) of 542 nM and an Emax (primary human T-cells) of 87%. For the same molecule, the IC50 [2] was 17800 nM.

For `CC(C)(C#N)c1nnc(-c2cc3c(cc2F)C(F)(F)C[C@@H](N)C(=O)N3Cc2ccc(-n3cc(C(F)(F)F)cn3)c(F)c2)o1` (single isomer, unassigned) [Example 47], the IC50 [1] was 2990 nM, the EC50 (primary human T-cells) was 496 nM and the Emax (primary human T-cells) was 98%. The IC50 [2] was 23700 nM.

For `CC(C)(C#N)c1nnc(-c2cc3c(cc2F)C(F)(F)C[C@@H](N)C(=O)N3Cc2ccc(-c3cnn(C(F)(F)F)c3)cc2)o1` (single isomer, unassigned) [Example 48], the IC50 [1] was 4920 nM, the EC50 (primary human T-cells) was 163 nM and the Emax (primary human T-cells) was 171%. The IC50 [2] was 1510 nM.
